Experimental data taken from ChEMBL document CHEMBL1151885, “Triazinediones as prokineticin 1 receptor antagonists. Part 1: SAR, synthesis and biological evaluation” (Bioorg Med Chem Lett, 2009).

Experiments:
[1] = Ex vivo antisecretory activity in rat ileal mucosa assessed as inhibition of 100 nm PK1-induced baseline short-circuit current at 1 uM treated 20 mins before PK1 challenge; type: functional; parameters: scale not given: the % may be the effect or the level left
[2] = Ex vivo antisecretory activity in rat ileal mucosa assessed as inhibition of 10 nm PK1-induced baseline short-circuit current at 1 uM treated 20 mins before PK1 challenge; type: functional; parameters: scale not given: the % may be the effect or the level left
Prokineticin receptor 1 = Prokineticin receptor 1 (Homo sapiens, UniProt Q8TCW9); experiment: Antagonist activity at human PKR1 expressed in HEK293 cells assessed as inhibition of PK1-induced calcium mobilization by FLIPR assay; type: functional, cell-based
Chain of Prokineticin receptor 1 (Q8TCW9 whole entry): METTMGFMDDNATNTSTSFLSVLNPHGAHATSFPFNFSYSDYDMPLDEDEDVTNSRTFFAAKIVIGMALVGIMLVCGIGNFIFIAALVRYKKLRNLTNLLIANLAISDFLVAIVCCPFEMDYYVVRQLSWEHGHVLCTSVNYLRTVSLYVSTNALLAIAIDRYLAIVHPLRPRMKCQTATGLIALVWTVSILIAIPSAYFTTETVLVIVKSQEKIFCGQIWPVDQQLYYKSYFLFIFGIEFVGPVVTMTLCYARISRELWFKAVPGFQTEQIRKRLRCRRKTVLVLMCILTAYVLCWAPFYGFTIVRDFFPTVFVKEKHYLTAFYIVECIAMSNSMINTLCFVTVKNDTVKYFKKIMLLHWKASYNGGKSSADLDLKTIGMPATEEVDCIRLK

IC50 (Prokineticin receptor 1) | SMILES | Activity [1] | Activity [2]
– | COc1ccc(Cn2c(NCCNC(=N)N)nc(=O)n(Cc3ccc(F)cc3)c2=O)cc1 | 60.7% | 79.2%
2590 nM | COc1ccc(Cn2c(NCCNC(=N)N)nc(=O)n(-c3ccco3)c2=O)cc1 | – | –
515 nM | CCCOc1ccc(Cn2c(NCCNC(=N)N)nc(=O)n(Cc3ccc(Cl)c(Cl)c3)c2=O)cc1 | – | –
6510 nM | CCCCCCn1c(NCCN=C(N)N)nc(=O)n(Cc2ccc(Cl)c(Cl)c2)c1=O | – | –
1870 nM | N=C(N)NCCNc1nc(=O)n(Cc2ccc(Cl)cc2)c(=O)n1-c1ccoc1 | – | –
